Patent US9365584B2, “Thieno [2,3-B] pyridinedione activators of AMPK and therapeutic uses thereof” (Poxel, priority 2009, dated 2016)

System: AMPK
Assay: AMPK enzyme activity assay (Delfia technology, AMARA peptide substrate)
Format: biochemical
Settings: compound at 30 μM vs AMP at 200 μM
Procedure: The following biological test allows the determination of the efficacy of compounds of formula (1) onto AMPK protein.
AMPK enzyme activities were assayed by using a Delfia technology. AMPK enzyme activities were carried out in microtiter plates in the presence of a synthetic peptide substrate (AMARAASAAALARRR, the “AMARA” peptide) and activators in serial dilutions. Reactions were initiated by the addition of AMPK. Enzyme activity was assayed by using an anti-phosphoserine antibody to measure the quantity of phosphate incorporated into the AMARAA.
No: Number of the molecule
Activity: Ratio between the % of control (basal activity) of compound of formula (1) at 30 μM and the % of control (basal activity) of AMP (natural substrate) at 200 μM.

Molecule | Activity: Ratio between the % of control (basal activity) of compound of formula (1) at 30 μM and the % of control (basal activity) of AMP (natural substrate) at 200 μM
O=C1Nc2scc(-c3ccccc3)c2C(=O)C1(F)c1ccc(C(F)(F)F)cc1 (stereo not shown) [No 133, 5-fluoro-3-phenyl-5-[4-(trifluoromethyl)phenyl]-7H-thieno[2,3-b]pyridine-4,6-dione] | A (0%<A<50%)
COc1cc(-c2csc3c2C(=O)C(F)(c2ccccc2)C(=O)N3)ccc1C (stereo not shown) [No 113, 5-fluoro-3-(3-methoxy-4-methyl-phenyl)-5-phenyl-7H-thieno[2,3-b]pyridine-4,6-dione] | B (50%≦B<75%)
Cc1ccc(-c2csc3c2C(=O)C(C)(c2ccc(O)cc2)C(=O)N3)c(O)c1F (stereo not shown) [No 24, 3-(3-fluoro-2-hydroxy-4-methyl-phenyl)-5-(4-hydroxy-phenyl)-5-methyl-7H-thieno[2,3-b]pyridine-4,6-dione] | A (0%<A<50%)
COc1ccc(C2(C)C(=O)Nc3sc(Cl)c(-c4cccc(F)c4)c3C2=O)cc1 (stereo not shown) [No 146, 2-chloro-3-(3-fluorophenyl)-5-(4-methoxyphenyl)-5-methyl-7H-thieno[2,3-b]pyridine-4,6-dione] | A (0%<A<50%)
COc1ccc(-c2c(Cl)sc3c2C(=O)C(C)(c2ccccc2)C(=O)N3)cc1 (stereo not shown) [No 36, 2-chloro-3-(4-methoxyphenyl)-5-methyl-5-phenyl-7H-thieno[2,3-b]pyridine-4,6-dione] | A (0%<A<50%)
COc1ccccc1-c1c(Cl)sc2c1C(=O)C(C)(c1ccc(S(C)(=O)=O)cc1)C(=O)N2 (stereo not shown) [No 141, 2-chloro-3-(2-methoxyphenyl)-5-methyl-5-(4-methyl-sulfonylphenyl)-7H-thieno[2,3-b]pyridine-4,6-dione] | A (0%<A<50%)
O=C1Nc2sc(Cl)c(-c3ccc(O)c(F)c3)c2C(=O)C1(F)c1ccccc1 (stereo not shown) [No 77, 2-chloro-5-fluoro-3-(3-fluoro-4-hydroxy-phenyl)-5-phenyl-7H-thieno[2,3-b]pyridine-4,6-dione] | B (50%≦B<75%)
CC1(c2cccc(F)c2)C(=O)Nc2sc(Cl)c(-c3ccccc3)c2C1=O (stereo not shown) [No 27, 2-chloro-5-(3-fluorophenyl)-5-methyl-3-phenyl-7H-thieno[2,3-b]pyridine-4,6-dione] | A (0%<A<50%)
COc1cccc(C2(C)C(=O)Nc3sc(Cl)c(-c4ccccc4C)c3C2=O)c1 (stereo not shown) [No 58, 2-chloro-5-(3-methoxyphenyl)-5-methyl-3-(o-tolyl)-7H-thieno[2,3-b]pyridine-4,6-dione] | C (C≧75%)
Cc1ccc(-c2c(Cl)sc3c2C(=O)C(F)(c2cccnc2)C(=O)N3)cc1C (stereo not shown) [No 187, 2-chloro-3-(3,4-dimethylphenyl)-5-fluoro-5-(3-pyridyl)-7H-thieno[2,3-b]pyridine-4,6-dione] | C (C≧75%)
CC(C)(C)c1ccc(-c2c(Cl)sc3c2C(=O)C(F)(c2ccccc2)C(=O)N3)cc1 (stereo not shown) [No 143, 3-(4-tert-butylphenyl)-2-chloro-5-fluoro-5-phenyl-7H-thieno[2,3-b]pyridine-4,6-dione] | A (0%<A<50%)
COc1ccc(-c2c(F)sc3c2C(=O)C(F)(c2ccccc2)C(=O)N3)cc1F (stereo not shown) [No 195, 2,5-difluoro-3-(3-fluoro-4-methoxy-phenyl)-5-phenyl-7H-thieno[2,3-b]pyridine-4,6-dione] | C (C≧75%)
CCC1(c2ccccc2)C(=O)Nc2scc(-c3ccccc3)c2C1=O (stereo not shown) [No 11, 5-ethyl-3,5-diphenyl-7H-thieno[2,3-b]pyridine-4,6-dione] | A (0%<A<50%)
O=C1Nc2scc(-c3ccc(F)cc3O)c2C(=O)C1(F)c1ccccc1 (stereo not shown) [No 25, 5-fluoro-3-(4-fluoro-2-hydroxy-phenyl)-5-phenyl-7H-thieno[2,3-b]pyridine-4,6-dione] | C (C≧75%)
O=C(O)c1ccc(-c2csc3c2C(=O)C(F)(c2ccccc2)C(=O)N3)cc1 (stereo not shown) [No 198, 4-(5-fluoro-4,6-dioxo-5-phenyl-7H-thieno[2,3-b]pyridin-3-yl)benzoic acid] | A (0%<A<50%)
CC1(c2ccc(F)cc2)C(=O)Nc2sc(Cl)c(-c3ccccc3F)c2C1=O (stereo not shown) [No 91, 2-chloro-3-(2-fluorophenyl)-5-(4-fluorophenyl)-5-methyl-7H-thieno[2,3-b]pyridine-4,6-dione] | A (0%<A<50%)

Molecule | Activity: Ratio between the % of control (basal activity) of compound of formula (1) at 30 μM and the % of control (basal activity) of AMP (natural substrate) at 200 μM
O=C1Nc2scc(-c3ccccc3)c2C(=O)C1(F)c1ccccc1 (stereo not shown) [No 100, 5-fluoro-3,5-diphenyl-7H-thieno[2,3-b]pyridine-4,6-dione] | B (50%≦B<75%)
2-chloro-5-methyl-3,5-bis(p-tolyl)-7H-thieno[2,3-b]pyridine-4,6-dione [No 154] | A (0%<A<50%)
CC1(c2ccccc2)C(=O)Nc2sc(Cl)c(-c3ccc(F)cc3)c2C1=O (stereo not shown) [No 26, 2-chloro-3-(4-fluorophenyl)-5-methyl-5-phenyl-7H-thieno[2,3-b]pyridine-4,6-dione] | A (0%<A<50%)
COc1ccccc1-c1c(Cl)sc2c1C(=O)C(C)(c1cccc(C)c1)C(=O)N2 (stereo not shown) [No 56, 2-chloro-3-(2-methoxyphenyl)-5-methyl-5-(m-tolyl)-7H-thieno[2,3-b]pyridine-4,6-dione] | A (0%<A<50%)
COc1ccc(-c2c(F)sc3c2C(=O)C(F)(c2ccc(F)cc2)C(=O)N3)cc1 (stereo not shown) [No 200, 2,5-difluoro-5-(4-fluorophenyl)-3-(4-methoxyphenyl)-7H-thieno[2,3-b]pyridine-4,6-dione] | B (50%≦B<75%)
COc1cccc(-c2c(Cl)sc3c2C(=O)C(C)(c2ccc(C)cc2)C(=O)N3)c1 (stereo not shown) [No 41, 2-chloro-3-(3-methoxyphenyl)-5-methyl-5-(p-tolyl)-7H-thieno[2,3-b]pyridine-4,6-dione] | A (0%<A<50%)
COc1cc(C)ccc1-c1csc2c1C(=O)C(F)(c1ccccc1)C(=O)N2 (stereo not shown) [No 118, 5-fluoro-3-(2-methoxy-4-methyl-phenyl)-5-phenyl-7H-thieno[2,3-b]pyridine-4,6-dione] | B (50%≦B<75%)
O=C1Nc2scc(-c3ccccc3)c2C(=O)C1(Cc1ccccc1)c1ccccc1 (stereo not shown) [No 10, 5-benzyl-3,5-diphenyl-7H-thieno[2,3-b]pyridine-4,6-dione] | A (0%<A<50%)
O=C1Nc2sc(Cl)c(-c3ccncc3)c2C(=O)C1(F)c1ccccc1 (stereo not shown) [No 93, 2-chloro-5-fluoro-5-phenyl-3-(4-pyridyl)-7H-thieno[2,3-b]pyridine-4,6-dione] | A (0%<A<50%)
COc1ccc(C2(F)C(=O)Nc3sc(Cl)c(-c4ccc(F)cc4O)c3C2=O)cc1C (stereo not shown) [No 225, 2-chloro-5-fluoro-3-(4-fluoro-2-hydroxy-phenyl)-5-(4-methoxy-3-methyl-phenyl)-7H-thieno[2,3-b]pyridine-4,6-dione] | C (C≧75%)
O=C1Nc2scc(-c3ccc(O)cc3)c2C(=O)C1(F)c1ccccc1 (stereo not shown) [No 203, 5-fluoro-3-(4-hydroxyphenyl)-5-phenyl-7H-thieno[2,3-b]pyridine-4,6-dione] | C (C≧75%)
CC1(c2ccccc2)C(=O)Nc2scc(-c3ccc4ccccc4c3O)c2C1=O (stereo not shown) [No 8, 3-(1-hydroxy-2-naphthyl)-5-methyl-5-phenyl-7H-thieno[2,3-b]pyridine-4,6-dione] | A (0%<A<50%)
O=C1Nc2scc(-c3cnccn3)c2C(=O)C1(F)c1ccccc1 (stereo not shown) [No 193, 5-fluoro-5-phenyl-3-pyrazin-2-yl-7H-thieno[2,3-b]pyridine-4,6-dione] | A (0%<A<50%)
Cc1cccc(-c2csc3c2C(=O)C(F)(c2ccccc2)C(=O)N3)c1 (stereo not shown) [No 136, 5-fluoro-3-(m-tolyl)-5-phenyl-7H-thieno[2,3-b]pyridine-4,6-dione] | B (50%≦B<75%)
COc1ccc(C2(F)C(=O)Nc3scc(-c4ccccc4)c3C2=O)cc1 (stereo not shown) [No 167, 5-fluoro-5-(4-methoxyphenyl)-3-phenyl-7H-thieno[2,3-b]pyridine-4,6-dione] | A (0%<A<50%)
